{
  "source": "paper PMC12586182",
  "about": "(Frontiers in Oncology, 2025)",
  "key": {"[1]": {"biological_target": "biotinylated, inactive MEK1 (Homo sapiens, UniProt Q02750)", "sequence (Q02750 whole entry)": "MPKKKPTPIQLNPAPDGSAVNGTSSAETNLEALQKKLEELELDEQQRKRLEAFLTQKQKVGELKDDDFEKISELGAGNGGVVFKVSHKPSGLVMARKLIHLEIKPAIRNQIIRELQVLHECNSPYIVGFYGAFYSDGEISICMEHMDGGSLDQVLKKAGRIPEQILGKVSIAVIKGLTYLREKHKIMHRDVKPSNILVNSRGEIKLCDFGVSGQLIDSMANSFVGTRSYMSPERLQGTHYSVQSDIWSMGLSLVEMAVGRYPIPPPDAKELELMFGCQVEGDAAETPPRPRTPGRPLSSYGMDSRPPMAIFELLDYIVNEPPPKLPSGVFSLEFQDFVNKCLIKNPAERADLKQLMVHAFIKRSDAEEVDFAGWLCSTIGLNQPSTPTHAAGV", "experiment": "Surface plasmon resonance binding (Biacore 1S+)", "settings": "SPR"}, "activated B-RAF": {"biological_target": "activated B-RAF (Homo sapiens, UniProt P15056)", "sequence (P15056 whole entry)": "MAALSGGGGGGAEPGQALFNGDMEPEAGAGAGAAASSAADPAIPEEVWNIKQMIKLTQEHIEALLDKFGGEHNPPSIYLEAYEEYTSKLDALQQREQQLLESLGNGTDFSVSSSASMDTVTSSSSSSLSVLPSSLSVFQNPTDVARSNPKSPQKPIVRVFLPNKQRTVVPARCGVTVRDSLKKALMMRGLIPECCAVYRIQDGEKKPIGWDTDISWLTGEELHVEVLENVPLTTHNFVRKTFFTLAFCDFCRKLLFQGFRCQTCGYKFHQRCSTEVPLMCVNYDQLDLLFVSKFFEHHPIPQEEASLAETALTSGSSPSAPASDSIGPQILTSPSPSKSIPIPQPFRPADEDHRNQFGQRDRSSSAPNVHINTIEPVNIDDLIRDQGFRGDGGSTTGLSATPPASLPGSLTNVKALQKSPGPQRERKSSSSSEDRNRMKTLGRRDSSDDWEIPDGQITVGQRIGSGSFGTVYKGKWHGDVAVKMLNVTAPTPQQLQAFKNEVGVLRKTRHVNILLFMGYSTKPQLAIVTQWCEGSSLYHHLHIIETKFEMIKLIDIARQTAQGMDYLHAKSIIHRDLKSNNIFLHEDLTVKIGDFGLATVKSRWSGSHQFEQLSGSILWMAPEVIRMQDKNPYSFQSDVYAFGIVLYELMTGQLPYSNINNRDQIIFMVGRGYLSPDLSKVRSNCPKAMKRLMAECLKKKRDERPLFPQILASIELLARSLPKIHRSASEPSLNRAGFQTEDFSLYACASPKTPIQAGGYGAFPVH", "experiment": "Surface plasmon resonance binding (Biacore 1S+)", "settings": "SPR, B-RAF"}},
  "data": [
    {"smiles": "CC(=O)Nc1cccc(-n2c(=O)n(C3CC3)c(=O)c3c(Nc4ccc(I)cc4F)n(C)c(=O)c(C)c32)c1", "note": "[trametinib]", "values": [
      {"measurement": "log (kd)", "setting": "[1]", "value": -3.87},
      {"measurement": "log(ka)", "setting": "[1]", "value": 5.34},
      {"measurement": "t1/2", "setting": "[1]", "value": 1.428, "unit": "h"}
    ]},
    {"smiles": "COC(=O)N[C@@H](C)CNc1nccc(-c2cn(C(C)C)nc2-c2cc(Cl)cc(NS(C)(=O)=O)c2F)n1", "note": "[encorafenib]", "values": [
      {"measurement": "log (kd)", "setting": "activated B-RAF", "value": -4.40},
      {"measurement": "log(ka)", "setting": "activated B-RAF", "value": 5.36},
      {"measurement": "t1/2", "setting": "activated B-RAF", "value": 4.8056, "unit": "h"}
    ]}
  ]
}
